The target in the assay is T1, Savinase® 16.0L (Lederbergia lenta, UniProt P29600).
T1 construct: purchased Sigma-Aldrich
T1 sequence (P29600 1-269): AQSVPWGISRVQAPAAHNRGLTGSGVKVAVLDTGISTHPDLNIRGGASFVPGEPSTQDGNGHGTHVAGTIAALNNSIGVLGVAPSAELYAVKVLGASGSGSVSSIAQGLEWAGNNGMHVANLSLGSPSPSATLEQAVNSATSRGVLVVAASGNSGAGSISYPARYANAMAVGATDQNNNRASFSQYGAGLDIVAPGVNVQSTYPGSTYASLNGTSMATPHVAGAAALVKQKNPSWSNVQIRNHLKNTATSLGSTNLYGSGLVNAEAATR
In words: Protease storage stability in liquid formulations at 37° C. (Suc-AAPF-pNA assay). The assay is classed as biochemical. The following applies: 0.7 wt% Savinase 16.0 L. Here is the method:
The storage stability of protease was assessed at 37° C.
Base test formulations were manufactured by making base formulations I to V by mixing the components according to Table 1.
Protease used: Savinase® 16.0L (CAS-No. 9014-01-1, EC-No. 232-752-2) was purchased from Sigma-Aldrich.
The respective component (a) or comparative compound was added, if applicable, to the respective base formulation in amounts as indicated in Table 1.
The amount of protease as provided in Table 1 refers to active protein.
Water was added to accomplish the balance to 100.
Savinase activity at certain points in time as indicated in Table 2 was be determined by employing Succinyl-Ala-Ala-Pro-Phe-p-nitroanilide (Suc-AAPF-pNA, short AAPF) as substrate. pNA is cleaved from the substrate molecule by proteolytic cleavage, resulting in release of yellow color of free pNA which was determined by measuring OD405. Measurements were done at 20° C.
The proteolytic activity values provided in Table 3 were calculated referring to the 100% value determined in the reference formulation at the time 0.
The nomenclature of formulations is as follows: the Roman number before the full stop characterizes the base formulation, the Arabian number the type of compound (A. # compound according to invention (component (a)); (B. #) comparative compound).

Where [1] appears, read: base formulation II, 2.5 wt% compound, 3 d.
Setting [2] is: base formulation II, 2.5 wt% compound, 7 d.
Setting [3] is: base formulation II, 2.5 wt% compound, 14 d.
The mark [4] stands for this setting: base formulation II, 2.5 wt% compound, 21 d.
Where [5] appears, read: base formulation II, 2.5 wt% compound, 28 d.
The mark [6] stands for this setting: base formulation II, 2.5 wt% compound, 35 d.
Where [7] appears, read: base formulation II, 2.5 wt% compound, T0.
[8] abbreviates: base formulation V, 2.0 wt% compound, 3 d.
Where [9] appears, read: base formulation V, 2.0 wt% compound, 7 d.
The mark [10] stands for this setting: base formulation V, 2.0 wt% compound, 14 d.
The mark [11] stands for this setting: base formulation V, 2.0 wt% compound, 21 d.
The mark [12] stands for this setting: base formulation V, 2.0 wt% compound, 28 d.
Setting [13] is: base formulation V, 2.0 wt% compound, 35 d.
[14] abbreviates: base formulation V, 2.0 wt% compound, T0.
The mark [15] stands for this setting: base formulation I, 2.5 wt% compound, 3 d.
Where [16] appears, read: base formulation I, 2.5 wt% compound, 7 d.
Setting [17] is: base formulation I, 2.5 wt% compound, 14 d.
The mark [18] stands for this setting: base formulation I, 2.5 wt% compound, 21 d.
[19] abbreviates: base formulation I, 2.5 wt% compound, 28 d.
[20] abbreviates: base formulation I, 2.5 wt% compound, 35 d.
[21] abbreviates: base formulation III, 2.0 wt% compound, 3 d.
The mark [22] stands for this setting: base formulation III, 2.0 wt% compound, 7 d.
The mark [23] stands for this setting: base formulation III, 2.0 wt% compound, 14 d.
The mark [24] stands for this setting: base formulation III, 2.0 wt% compound, 21 d.
[25] abbreviates: base formulation III, 2.0 wt% compound, 28 d.
[26] abbreviates: base formulation III, 2.0 wt% compound, 35 d.

For the compound `O=C(CC(O)(CC(=O)OCc1ccccc1)C(=O)OCc1ccccc1)OCc1ccccc1` [A.8, Tribenzylcitrate], the “protease activity in the course of time of storage at 37° C.” value (from here on “protease activity in the course”) under setting [1] was determined as 94%; the “protease activity in the course” value under setting [2] is listed as 91%; the “protease activity in the course” value under setting [3] amounted to 88%; the “protease activity in the course” value under setting [4] is listed as 85%; the “protease activity in the course” value under setting [5] was determined as 83%; the “protease activity in the course” value under setting [6] was determined as 77%. Further, the “protease activity in the course” value under setting [7] is given as 100%; the “protease activity in the course” value under setting [8] was found to be 96%; the “protease activity in the course” value under setting [9] stood at 92%; the “protease activity in the course” value under setting [10] is recorded as 86%; the “protease activity in the course” value under setting [11] was 84%; the “protease activity in the course” value under setting [12] amounted to 80%. The “protease activity in the course” value under setting [13] came to 73% and the “protease activity in the course” value under setting [14] came out at 96%.

For the compound `CC(=O)OCC(COC(C)=O)OC(C)=O` [B.4, glyceroltriacetate, reference compound], the “protease activity in the course” value worked out at 91% under setting [15]; 84% under setting [16]; 70% under setting [17]; 66% under setting [18]; 61% under setting [19]; 56% under setting [20]. Also, the “protease activity in the course” value was found to be 87% under setting [1]; 80% under setting [2]; 73% under setting [3]; 58% under setting [4]; 57% under setting [5]; 54% under setting [6].

In the case of `CCOC(=O)CC(CC(=O)OCC)(OC(C)=O)C(=O)OCC` [A.5, Acetyltriethylcitrate], the “protease activity in the course” value is listed as 96% under setting [15]; 94% under setting [16]; 90% under setting [17]; 85% under setting [18]; 82% under setting [19]; 78% under setting [20]. Also, the “protease activity in the course” value (base formulation I, 2.5 wt% compound, T0) was determined as 98%; the “protease activity in the course” value under setting [1] came to 101%; the “protease activity in the course” value under setting [2] worked out at 100%; the “protease activity in the course” value under setting [3] worked out at 94%; the “protease activity in the course” value under setting [4] was 90%; the “protease activity in the course” value under setting [5] turned out to be 85%. The “protease activity in the course” value is 81% under setting [6]; 102% under setting [7]; 97% under setting [21]; 95% under setting [22]; 91% under setting [23]; 86% under setting [24]. In addition, the “protease activity in the course” value stood at 81% under setting [25]; 77% under setting [26]; 99% (base formulation III, 2.0 wt% compound, T0).

Take `CCCCOC(=O)CC(O)(CC(=O)OCCCC)C(=O)OCCCC` [A.3, Tributylcitrate]: the “protease activity in the course” value is reported as 100% (base formulation IV, 2.0 wt% compound, 3 d); 96% (base formulation IV, 2.0 wt% compound, 7 d); 91% (base formulation IV, 2.0 wt% compound, 14 d); 84% (base formulation IV, 2.0 wt% compound, 21 d); 81% (base formulation IV, 2.0 wt% compound, 28 d); 77% (base formulation IV, 2.0 wt% compound, 35 d). Besides, the “protease activity in the course” value is, setting by setting: (base formulation IV, 2.0 wt% compound, T0) 99%; under setting [8], 98%; under setting [9], 93%; under setting [10], 88%; under setting [11], 85%; under setting [12], 80%. Also, the “protease activity in the course” value by setting is: under setting [13], 74%; under setting [14], 101%.

In the case of `CCOC(=O)C(=O)OCC` [B.3, diethyloxalate, reference compound], the “protease activity in the course” value by setting is: under setting [15], 90%; under setting [16], 86%; under setting [17], 70%; under setting [18], 65%; under setting [19], 62%; under setting [20], 58%. The “protease activity in the course” value worked out at 92% under setting [21]; 85% under setting [22]; 74% under setting [23]; 60% under setting [24]; 55% under setting [25]; 51% under setting [26].

Source of the values: patent US20210395650A1, “COMPOUNDS STABILIZING HYDROLASES IN LIQUIDS” (BASF SE, priority 2018, published 2021).
